Reference: PubChem BioAssay (NCI)
“And” between values parts separate entries of the source, which are not always exact repeats. Equal values may be shown once.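 Protocol summary: plate cells (96-well), add compound at 5 concentrations, incubate 48 h, interpolate endpoints linearly. Here, GI50 denotes the concentration required for 50% inhibition of growth. At the TGI there is no net growth.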

Assays:
Assay in all cases: NCI-60 cell line screen, 48 h
[1] = system: TK-10 renal
[2] = system: LOX IMVI melanoma
[3] = system: OVCAR-8 ovarian
[4] = system: COLO 205 colon
[5] = system: SF-268 CNS
[6] = system: MDA-MB-231 breast
[7] = system: KM12 colon
[8] = system: OVCAR-4 ovarian
[9] = system: IGROV1 ovarian
[10] = system: NCI/ADR-RES ovarian

Row | SMILES | GI50 [1] [µM] | TGI [1] [µM] | GI50 [2] [µM] | TGI [2] | GI50 [3] [µM] | TGI [3] | GI50 [4] [µM] | TGI [4] | GI50 [5] [µM] | TGI [5] | GI50 [6] [µM] | TGI [6] [µM] | GI50 [7] [µM] | TGI [7] | GI50 [8] [µM] | TGI [8] | GI50 [9] [µM] | TGI [9] | TGI [10] [µM] | GI50 [10] [µM]
1 | O=C(NN1C(=O)CSC12CCCC2)C(O)c1ccccc1 (stereo unspecified) | > 100 | > 100 | > 100 | > 100 µM | > 100 | > 100 µM | > 100 | > 100 µM | > 100 | > 100 µM | > 100 | > 100 | > 100 | > 100 µM | > 100 | > 100 µM | > 100 | > 100 µM | – | –
2 | Cc1ccc(NC(=O)CC/C(CC(=O)C(C)(C)C)=N\Nc2ccc([N+](=O)[O-])cc2[N+](=O)[O-])cc1C | – | > 100 | – | 97.2 µM | – | > 100 µM | – | > 100 µM | – | > 100 µM | – | – | – | > 100 µM | – | – | – | > 100 µM | – | –
3 | C=C1NC(=O)C(CC(C(=O)C(=O)Nc2c(C)cccc2C(C)(C)C)C(=O)c2ccc3ccccc3c2)C(=O)N1 (stereo unspecified) | – | – | – | > 100 µM | – | > 100 µM | – | > 100 µM | – | > 100 µM | – | > 100 | – | > 100 µM | – | > 100 µM | – | – | > 100 | –
4 | COc1ccc(/C=C\c2cc(OC)c(OC)c(OC)c2)c(O)c1O | – | 55.8 | 0.0512 | 16.9 µM and 8.07 µM | 0.0517 | 7.13 µM and 9.64 µM | – | 30.1 µM and 90.2 µM | 0.249 | 37.8 µM and 32 µM | – | 18.5 | 0.0568 | 7.42 µM and 25.4 µM | 0.959 | 17 µM and 63.5 µM | 0.212 | 20.6 µM and 54.2 µM | – | –
5 | N#Cc1cc(NC(=O)c2ccccc2)c(=O)n2c1[nH]c1ccccc12 | – | 89.2 | – | – | – | > 100 µM | – | > 100 µM | – | > 100 µM | – | – | – | > 100 µM | – | > 100 µM | – | > 100 µM | – | –
6 | O=C1C2ON3c4ccccc4C(=O)C3(c3ccccc3)C2C(=O)N1c1ccccc1 (stereo unspecified) | – | – | – | – | – | > 100 µM | – | > 100 µM | – | > 100 µM | – | – | – | – | – | > 100 µM | – | > 100 µM | – | –
7 | Cc1c(C2Cc3ccccc3N2)c2ccccc2n1C (stereo unspecified) | – | > 100 | – | > 100 µM | – | > 100 µM | – | > 100 µM | – | > 100 µM | – | – | – | > 100 µM | – | > 100 µM | – | > 100 µM | – | –
8 | CCOC(=O)C1SC(=Nc2ccc(Cl)cc2C)N=C1C (stereo unspecified) | – | 65.2 | – | 28.2 µM | – | > 100 µM | – | 31 µM | – | 94.5 µM | – | – | – | 35.1 µM | – | 56.2 µM | – | 88 µM | – | –
9 | CCc1nc2cc(/C=C/C(=O)NO)ccc2c(=O)n1CCc1ccc(F)cc1 | 1.42 | 4.89 | 1.35 | 2.78 µM | – | – | 1.26 | 3.65 µM | 2.14 | 5.98 µM | 1.32 | 4.67 | 2.2 | 14.3 µM | 2.34 | > 100 µM | – | – | 3.15 | 0.577
10 | COCOCC[C@@H]1CC=CC(NC(=O)OCc2ccccc2)C1/C=C/C(=O)CCC1OCCO1 (stereo partly specified) | – | > 100 | – | 34 µM | – | 39.3 µM | – | 37.9 µM | – | 99 µM | – | – | – | 45.4 µM | – | > 74.4 µM | – | > 100 µM | – | –
11 | CN(C)CCNC(=O)c1cccc2ncc(-c3ccccc3)nc12 | – | 34.7 | – | 29.5 µM | – | > 93 µM | – | 15.5 µM | – | 29.4 µM | – | – | – | 29.4 µM | – | 26.7 µM | – | > 74.6 µM | – | –
12 | O=C(Nc1nc(-c2ccc(Cl)cc2)nc2c1sc(=S)n2-c1ccccc1)C(F)(F)F | – | – | 2.43 | 6.46 µM | 4.21 | 21.1 µM | 3.54 | 32.6 µM | 4.45 | 24.3 µM | 3.64 | 12.5 | 4.89 | > 100 µM | 1.95 | 4.19 µM | 3.9 | 14.3 µM | 19.3 | 3.58
13 | COc1ccc2c(c1)C(=O)c1c-2n(CCCN)c(=O)c2cc(OC)c(OC)cc12 | 1.45 | 2.99 | 0.0529 | 0.554 µM | – | – | – | – | 0.515 | – | 0.57 | 1.86 | 0.169 | 0.627 µM | – | – | 0.154 | 0.976 µM | 5.4 | 0.405
14 | O=C(O)CCSC(=S)Nc1cccc(F)c1 | – | > 100 | – | 42.6 µM | – | > 100 µM | – | > 100 µM | – | > 100 µM | – | – | – | > 100 µM | – | > 100 µM | – | 80.9 µM | – | –
15 | C/C(CCn1[nH]c(=O)ccc1=O)=N\Nc1ccc([N+](=O)[O-])cc1[N+](=O)[O-] | – | > 100 | – | > 100 µM | – | > 100 µM | – | – | – | > 100 µM | – | – | – | > 100 µM | – | > 100 µM | – | > 100 µM | – | –
16 | CC[C@]12C=CCN3CC[C@@]4(c5ccc(OC)cc5N(C)[C@H]4[C@@](O)(C(=O)OC)[C@@H]1OC(=O)CCC(=O)N[C@H](Cc1c[nH]c4ccccc14)C(=O)OC)[C@@H]32 | 13.5 | 29.4 | – | – | 7.78 | 35 µM | 3.47 | 14.3 µM | 4.88 | 25.9 µM | 2.83 | 9.54 | 10.1 | 36 µM | 6.5 | 28.4 µM | 4.3 | 24.1 µM | 37.8 | 11.3
17 | CC(=N)N(C)O | – | > 100 | – | 31.3 µM | – | > 100 µM | – | 33.2 µM | – | > 100 µM | – | – | – | > 100 µM | – | > 100 µM | – | > 100 µM | – | –
18 | COC(=O)C1=C(C(=O)OC)C2OC1c1cc3ccccc3cc12 | – | 11.3 | – | 30.5 µM | – | 13.6 µM | – | 3.39 µM | – | 34.9 µM | – | 33.7 | – | > 58.1 µM | – | – | – | 9.58 µM | 30.7 | –
19 | COC(=O)C(C(=O)C(=O)Nc1ccc(OC)cc1[N+](=O)[O-])c1nc2cc(C)c(C)cc2[nH]c1=O (stereo unspecified) | – | > 100 | – | > 100 µM | – | > 100 µM | – | > 100 µM | – | > 100 µM | – | – | – | – | – | > 100 µM | – | > 100 µM | – | –
